These results are taken from US20220088146A1, “Melanocortin Receptor-Specific Peptide Formulations and Methods for Gastrointestinal Tract-Specific Delivery” (Palatin Technologies, Inc., priority 2018, published 2022).

Bridge positions count the residues as written; N and C are the ends. Square brackets hold non-standard residues; d marks the D form. Ends that are not written are not given here. Peptide text beside a SMILES is read from it. dPhe(3,4-F2) = N[C@H](Cc1ccc(F)c(F)c1)C(=O)O; dPhe(4-Me) = Cc1ccc(C[C@@H](N)C(=O)O)cc1; dPhe(4-F) = N[C@H](Cc1ccc(F)cc1)C(=O)O; Nle = CCCC[C@H](N)C(=O)O; Orn = NCCC[C@H](N)C(=O)O; Dab = NCC[C@H](N)C(=O)O

For data set [1], the target named is T1, hMC1r (Homo sapiens, UniProt Q01726). The data set can be described thus: Competitive inhibition binding assay using [I125]-NDP-α-MSH, hMC1r membranes. The settings on record: human recombinant MC1r, HEK-293 membranes, read-out: MC-1 Ki (average). Here is the method:
(§1) A competitive inhibition binding assay was performed using membrane homogenates prepared from HEK-293 cells that express recombinant hMC1r or hMC4r (in each instance where the h prefix refers to human), or alternatively membrane homogenates from B16-F10 mouse melanoma cells containing endogenous murine MC1r. In the examples that follow, all MC1r and MC4r values are for human recombinant receptors, unless otherwise noted. Assays were performed in 96 well polypropylene round-bottom plates (VWR catalog number 12777-030). […] After incubation for 90 minutes at 37° C., the assay mixture was filtered onto GF/B Unifilter plates (Perkin-Elmer catalog number 6005177) and washed with 3 mL of ice-cold buffer per well. Filters were air dried and 35 μL of scintillation cocktail added to each well. Plates were counted in a Microbeta counter for bound radioactivity. […] Each assay was conducted in duplicate and the actual mean values are described, with results less than 0% reported as 0%. Ki values for peptides of the present invention were determined using Graph-Pad Prism® curve-fitting software.
(§2) All results are expressed in nM except for Emax values, which are percentage values. Peptides with the captioned primary sequence were synthesized and purified as described in Section 7 above, with the resulting peptide having the structure depicted.

Data set [2] can be described thus: Human clinical microdose study of C14-labeled oral formulation. In kind it is in vivo. The settings on record: single oral microdose of C14-labeled Example 9.3 formulated as for Lot 41. From the text: A combination of Eudragit® L100-55, Eudragit® S-100 and Eudragit® FS30D polymethacrylates were selected and utilized at a weight ratio of 23.25:23.0:12.5, where the weight of L100-55 and S-100 was dry weight of solid material, and the weight of FS30D was of a commercially prepared aqueous formulation wherein the 12.5 grams of liquid FS30D contained 3.75 grams polymer, for a weight ratio of polymer of 23.25:23:3.75. The combination of polymethacrylates were placed in acetone and stirred for an extended period. […] The dried material was retrieved, diluted with additional dried polymetacrylate mixture not containing peptide to obtain the desired target concentration in a predetermined quantity of material, and milled to the desired diameter and sieved. The sieved material was placed within a gelatin size 2 capsule to provide an oral formulation.
The oral formulation was administered in a microdose level to 24 subjects, divided into six cohorts of 4 subjects each.
The only radioactive material identified in urine was the C14 labelled phenylalanine.

The target in the next data set is MC4r (Homo sapiens, UniProt P32245). The data set can be described thus: Competitive inhibition binding assay using [I125]-NDP-α-MSH, hMC4r membranes. The arrangement: expressed in transfected cells; host or cells: HEK-293. The settings on record: human recombinant MC4r, HEK-293 membranes, read-out: MC-4 Ki (average). Here is the method: as §1, §2
Data set [3] addresses T1, hMC1r. The data set can be described thus: Assay for agonist activity: cAMP accumulation in HBL melanoma cells. In kind it is cell-based. The arrangement: endogenous in cells; host or cells: HBL human melanoma cells. Particulars: for Emax: HBL, compared to NDP-α-MSH as 100%, read-out: MC-1 Emax (average; cAMP HBL); for EC50: read-out: MC-1 EC50 (average; cAMP HBL). Here is the method: 8.2 Assay for Agonist Activity.
Confluent HBL cells that express hMC1r or HEK-293 cells that express recombinant hMC4r were detached from culture plates by incubation in enzyme-free cell dissociation buffer. Dispersed cells were suspended in Earle's Balanced Salt Solution containing 10 mM HEPES (pH 7.5), 1 mM MgCl2, 1 mM glutamine, 0.5% albumin and 0.3 mM 3-isobutyl-1-methyl-xanthine (IBMX), a phosphodiesterase inhibitor. The cells were plated in 96-well plates at a density of 0.4×10^5 cells per well for HBL cells and 0.5×10^5 cells per well for HEK-293 cells and pre-incubated for 10 minutes. Cells were exposed for 15 minutes at 37° C. to peptides of the present invention dissolved in DMSO (final DMSO concentration of 1%) at a concentration range of 0.05-5000 nM in a total assay volume of 200 μL. […] Data analysis was performed by nonlinear regression analysis with Graph-Pad Prism® software.
as §2
(In general: Cyclic AMP is a second messenger, typically raised through Gs and lowered through Gi signalling.)

For the next data set, the system named is MC1r. In words: Functional selectivity evaluation at Cerep, MC1r. In kind it is cell-based.

MC4r, sequence (P32245 whole entry): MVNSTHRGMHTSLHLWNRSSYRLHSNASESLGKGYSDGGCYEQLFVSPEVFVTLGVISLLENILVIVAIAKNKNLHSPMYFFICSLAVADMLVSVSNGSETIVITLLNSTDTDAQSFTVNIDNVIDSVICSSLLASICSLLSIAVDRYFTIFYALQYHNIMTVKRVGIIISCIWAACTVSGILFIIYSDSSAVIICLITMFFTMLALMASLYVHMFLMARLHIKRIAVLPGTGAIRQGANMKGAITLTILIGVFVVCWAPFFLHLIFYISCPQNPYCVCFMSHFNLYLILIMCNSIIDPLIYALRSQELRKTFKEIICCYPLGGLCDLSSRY
T1 sequence (Q01726 whole entry): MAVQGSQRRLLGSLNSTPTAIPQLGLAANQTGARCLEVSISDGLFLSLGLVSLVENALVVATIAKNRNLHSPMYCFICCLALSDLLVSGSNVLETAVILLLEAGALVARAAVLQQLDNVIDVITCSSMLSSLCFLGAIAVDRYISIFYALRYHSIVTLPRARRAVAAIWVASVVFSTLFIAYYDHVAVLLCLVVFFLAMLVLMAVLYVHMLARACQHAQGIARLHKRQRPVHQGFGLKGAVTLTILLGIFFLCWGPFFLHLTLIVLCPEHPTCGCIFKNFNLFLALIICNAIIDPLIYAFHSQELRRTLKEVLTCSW

Take `CCCC[C@H](NC(C)=O)C(=O)N[C@H]1CCC(=O)NC[C@@H](C(=O)N[C@@H](Cc2c[nH]c3ccccc23)C(C)=O)NC(=O)[C@H](CCCNC(=N)N)NC(=O)[C@@H](Cc2ccccc2)NC(=O)[C@H](Cc2c[nH]cn2)NC1=O` [Example 9.26, Ac-Nle-cyclo(Glu-His-D-Phe-Arg-Dap)-Trp-OH]: the Ki (usually the dissociation constant of the complex between target and ligand, obtained from inhibition or displacement) on hMC1r [1] stood at 1 nM. For the same compound, in data set [2], the “intact peptide in plasma or urine” value was “no intact peptide”; the “peptide levels in fecal samples” value was “significant and approximately equal levels”. Also, at MC4r, the Ki was found to be 4700 nM. Also, on hMC1r [3], the Emax (in general, the size of the effect at its maximum, as opposed to the concentration needed) worked out at 81% and the EC50 (commonly the concentration that produces a half-maximal response) turned out to be 0.107 nM.

With `CCCC[C@H](NC(C)=O)C(=O)N[C@H]1CCC(=O)NCCC(C(=O)N[C@@H](Cc2c[nH]c3ccccc23)C(N)=O)NC(=O)[C@H](C)NC(=O)[C@@H](Cc2ccccc2)NC(=O)[C@H](Cc2c[nH]cn2)NC1=O` (stereo partly drawn) [Example 9.35, Ac-Nle-cyclo(Glu-His-D-Phe-Ala-Dab)-Trp-NH2], the Ki at hMC1r [1] is 0.8 nM. For the same compound, at hMC1r [3], the Emax worked out at 72% and the EC50 is 0.115 nM.

For `CCCC[C@H](NC(C)=O)C(=O)N[C@H]1CNC(=O)CCC(=O)NCC[C@@H](C(=O)N[C@@H](Cc2c[nH]c3ccccc23)C(N)=O)NC(=O)[C@H](CCCNC(=N)N)NC(=O)[C@@H](Cc2ccccc2)NC(=O)[C@H](Cc2c[nH]cn2)NC1=O` [Example 9.43, Ac-Nle-cyclo(Dap-His-D-Phe-Arg-Dab)-Trp-NH2], the Ki on hMC1r [1] worked out at 0.065 nM; at MC4r, 860 nM. In addition, the Emax at hMC1r [3] was found to be 85%. The EC50 on hMC1r [3] is 0.016 nM.

Turning to `CCCCC(NC(C)=O)C(=O)N[C@H]1CCC(=O)NCC[C@@H](C(N)=O)NC(=O)[C@H](CCCNC(=N)N)NC(=O)[C@@H](Cc2ccccc2)NC(=O)[C@H](Cc2c[nH]cn2)NC1=O` (stereo partly drawn) [Example 9.44, Ac-Nle-cyclo(Glu-His-D-Phe-Arg-Dab)-NH2], the Ki on hMC1r [1] amounted to 7 nM. Moreover, on hMC1r [3], the Emax is 85% and the EC50 amounted to 0.32 nM.

For `CCCCC(NC(C)=O)C(=O)N[C@H]1CCC(=O)NCC[C@@H](C(N)=O)NC(=O)[C@H](C)NC(=O)[C@@H](Cc2ccccc2)NC(=O)[C@H](Cc2c[nH]cn2)NC1=O` (stereo partly drawn) [Example 9.45, Ac-Nle-cyclo(Glu-His-D-Phe-Ala-Dab)-NH2], the Ki at hMC1r [1] turned out to be 645 nM. In addition, at hMC1r [3], the Emax came to 73% and the EC50 came to 44 nM.

As to `CCCCC(NC(C)=O)C(=O)N[C@H]1CCC(=O)NCC[C@@H](C(=O)N[C@@H](CCCCN)C(N)=O)NC(=O)[C@H](CCCNC(=N)N)NC(=O)[C@@H](Cc2ccccc2)NC(=O)[C@H](Cc2c[nH]cn2)NC1=O` (stereo partly drawn) [Example 9.52, Ac-Nle-cyclo(Glu-His-D-Phe-Arg-Dab)-Lys-NH2], the Ki on hMC1r [1] turned out to be 2 nM. Moreover, the Ki at MC4r was determined as 7370 nM. Also, on hMC1r [3], the Emax worked out at 91% and the EC50 worked out at 0.175 nM.

As for `CCCC[C@H](NC(C)=O)C(=O)N[C@H]1CCC(=O)NCC[C@@H](C(N)=O)NC(=O)[C@H](CCCNC(=N)N)NC(=O)[C@@H](Cc2ccc(F)cc2)NC(=O)[C@H](CCCN)NC1=O` [Example 9.61, Ac-Nle-cyclo(Glu-Orn-D-Phe(4-F)-Arg-Dab)-NH2] (Ac-[Nle]E[Orn][dPhe(4-F)]R[Dab]-NH2; lactam 2-6), the Emax on hMC1r [3] was found to be 102%.

`CCCC[C@H](NC(C)=O)C(=O)N[C@H]1CCC(=O)NCC[C@@H](C(N)=O)NC(=O)[C@H](CCCNC(=N)N)NC(=O)[C@@H](Cc2ccc(F)c(F)c2)NC(=O)[C@H](CCCN)NC1=O` [Example 9.62, Ac-Nle-cyclo(Glu-Orn-D-Phe(3,4-F)-Arg-Dab)-NH2] (Ac-[Nle]E[Orn][dPhe(3,4-F2)]R[Dab]-NH2; lactam 2-6): on hMC1r [3], the Emax is 97%.

Regarding `CCCC[C@H](NC(C)=O)C(=O)N[C@H]1CCC(=O)NCC[C@@H](C(N)=O)NC(=O)[C@H](CCCNC(=N)N)NC(=O)[C@@H](Cc2ccc(C)cc2)NC(=O)[C@H](CCCN)NC1=O` [Example 9.63, Ac-Nle-cyclo(Glu-Orn-D-Phe(4-Me)-Arg-Dab)-NH2] (Ac-[Nle]E[Orn][dPhe(4-Me)]R[Dab]-NH2; lactam 2-6), the Emax at hMC1r [3] was found to be 96%.

Turning to `CCCC[C@H](NC(C)=O)C(=O)N[C@H]1CCC(=O)NCC[C@@H](C(N)=O)NC(=O)[C@H](CCCNC(=N)N)NC(=O)[C@@H](Cc2ccc(OC)cc2)NC(=O)[C@H](CCCN)NC1=O` [Example 9.64, Ac-Nle-cyclo(Glu-Orn-D-Phe(4-OMe)-Arg-Dab)-NH2] (Ac-[Nle]E[Orn][dY](Me)R[Dab]-NH2; lactam 2-6), the Emax at hMC1r [3] came to 99%.

For `CCCC[C@H](NC(C)=O)C(=O)N[C@H]1CCC(=O)NCC[C@@H](C(N)=O)NC(=O)[C@H](CCCNC(=N)N)NC(=O)[C@@H](Cc2ccccc2)NC(=O)[C@@H]2CCCN2C1=O` [Example 9.65, Ac-Nle-cyclo(Glu-Pro-D-Phe-Arg-Dab)-NH2], the Emax at hMC1r [3] was 102%.

For `CCCC[C@H](NC(C)=O)C(=O)N[C@H]1CCC(=O)NCC[C@@H](C(=O)N[C@@H](Cc2c[nH]c3ccccc23)C(N)=O)NC(=O)[C@H](CCCNC(=N)N)NC(=O)[C@@H](Cc2ccccc2)NC(=O)[C@H]2CCCN2C1=O` [Example 9.66, Ac-Nle-cyclo(Glu-Pro-D-Phe-Arg-Dab)-Trp-NH2], the Emax at hMC1r [3] turned out to be 97%.

In the data set with MC1r, “SYSMEHFRWGKPVGKKRRPVKVYPNGAEDESAEAFPLEF [ACTH, reference compound]” showed a concentration giving a half-maximal response (EC50) of 980 nM.
